Measured values published in article PMC11961743 (Nature Communications, 2025).

Tested on: SdPT
Test: HPLC prenylation assay, yeast microsomes
Format: biochemical, Saposhnikovia divaricata
Details: saturating DMAPP and MgCl2; optimum pH 10.0, 45 °C

Structure (SMILES): Cc1cc(=O)c2c(O)cc(O)cc2o1 [compound 2, noreugenin]
- Km: 29.1 µM
